Where “and” joins values, the source holds several entries; their conditions need not be identical. Equal values may be shown once.
What was measured:
CEM cells [1] = experiment: Targeted LC-MS/MS-MRM of de novo and salvage dCTP biosynthesis (nucleotide pools and newly replicated DNA); type: cell-based, human
Method: Cells were transferred into RPMI-1640 without glucose and supplemented with 10% dialyzed FBS (Gibco) containing the following labeled substrates: precursors for de novo [U-^13C6]glucose (Sigma-Aldrich, 389374) at 11 mM; precursors for purine salvage [U-^13C10,^15N5]dA (Cambridge Isotopes, CIL 3896), [^15N5]dA (Cambridge Isotopes, NLM-3895) and [^15N5]dG (Cambridge Isotopes, NLM-3899) at 5 µM or as indicated; and precursors for pyrimidine salvage: [U-^13C9,^15N3]dC (Silantes, 124603602) and [U-^13C10,^15N2]dT (Cambridge Isotopes, CNLM-3902) at 5 µM and [^15N2]orotate (Cambridge Isotopes, NLM-1048) at indicated concentrations. The cells were incubated for 12 h or as indicated before sample collection and processing.
The rates of dCTP incorporation into the DNA were determined using linear regression with procedure GLM in SAS (v. 9.4). DNA % label was transformed using a shifted log addition of 1 due to the presence of zeros in the data set. Rates were calculated using the slope of the regression line for the log transformed data and are presented in the table with the associated standard errors, along with the ratio between the rate of incorporation into DNA by the de novo and salvage pathways (Table 1).
Cell cycle synchronization. Cells were treated with a CDK4/6 inhibitor, Pablociclib or PD-0332991 (Selleckchem, S1116) for 18 h to synchronize them in the G1 phase. Subsequently, cells were washed twice with PBS containing 2% FBS (Omega Scientific) and released into fresh media. […]
Clinical Microarray Core on an Illumina HiSeq3000 using the SeqCap EZ Exome Enrichment Kit v3.0 (Roche).
Reads were mapped to UCSC hg19 (bwa-mem), deduplicaed (PicardTools), and subjected to base quality score recalibration and realignment around known indels according to the Broad Institute Genome Analysis Toolkit (GATK) Best Practices v3.0. Variants in genes associated with nucleotide biosynthesis were identified using the GATK HaplotypeCaller, and annotated with Oncotator (http://portals.broadinstitute.org/oncotator/). dNTP sample processing. 0.5 – 1 x 10^6 cells were collected into 1.5 mL microcentrifuge tubes and centrifuged (450 x g, 4 min, 4 °C). The supernatant was carefully aspirated and the cells were washed twice with 1 mL of cold PBS, followed each time by centrifugation (450 x g, 4 min 4 °C). The PBS were aspirated.
Thereafter, the pellets were treated with 10 µL of 10% trifluoroacetic acid with internal standards (1 µM […]
s, and incubated on ice for 10 min. 40 µL of 500 mM ammonium acetate, pH = 9.3, with the same internal standard (1 µM [15N3]dCMP and [15N3]dCTP) was then added and the samples were vigorously vortexed again for 30 s. The samples were centrifuged (14,000 x g, 10 min, 4 °C) to remove cell debris. The supernatants (~ 40 µL) were transferred into HPLC injector vials. Stock solutions (10 mM) of rCTP, rCDP, dCMP, dCDP, and dCTP (Sigma Aldrich) were prepared individually in water, and stored at –20 °C before use to generate calibration standards. Calibration standards were prepared and mixed together in water with internal standards (1 µM [15N3]dCMP and [15N3]dCTP) to make working stock concentrations in 100 nM – 100 µM range.
Calibration standards were diluted 10-fold into the same nucleotide extraction solution of 10% TFA/500 mM ammonium acetate (1:4, v/v) with internal standards (1 µM [15N3]dCMP and [15N3]dCTP) to give a final concentration in 10 nM – 10 µM. Nucleotide and calibration samples were processed together to minimize […]
DNA sample processing. Genomic DNA from 0.5 – 1 x 10^4 cells was extracted using the Quick-gDNA MiniPrep kit (Zymo Research, D3021) and hydrolyzed to nucleosides using the DNA Degradase Plus kit (Zymo Research, E2021), following manufacturer-supplied instructions. In the final step of DNA extraction, 50 µL of […]
water was used to elute the DNA into 1.5 mL microcentrifuge tubes. A nuclease solution (5 µL; 10X buffer/DNA Degradase Plus™/water, 2.5/1/1.5, v/v/v) was added to 20 µL of the eluted genomic DNA in an HPLC injector […]
vial. […]

CEM cells [2] = experiment: Cell cycle analysis of asynchronous cells by flow cytometry (S-phase population, S-phase arrest); type: cell-based, human; settings: CEM, 24 h
Method: Cell cycle histograms. Cells were plated at a density of 0.5 x 10^6 cells/mL in respective media or drug treated media. Following 24 h incubation, cells were harvested and washed twice with PBS twice before staining with 0.5 ml of propidium iodide (Calbiochem, #P3566, 1 µg/mL) solution containing Ribonuclease A and 0.3% Triton-X 100. The samples were protected from light before acquisition by flow cytometry.
Cell cycle kinetics and cell cycle progression by intracellular detection of DNA-incorporated 5-ethynyl-2-deoxyuridine (EdU). CEM T-ALL cells were plated at a density of 0.5 x 10^6 cells/mL. Cells were pulsed with 10 µM EdU (Invitrogen) for 1 h, washed twice with PBS, and released in fresh media containing 5 µM deoxyribonucleosides, with and without drugs. Cells were collected at different time points following release in fresh media, and then fixed with 4% paraformaldehyde and permeabilized using saponin perm/wash reagent (Invitrogen). Cells were then stained with azide-Alexa Fluor 647 by Click reaction according to manufacturer’s protocol (Invitrogen; Click-iT EdU Flow cytometry kit, #C10634). […]

[3] = CEM 12 h, 1 uM VE-822, 1 uM DI-82, 500 nM 3-AP, #1-#3

SMILES: NC(=S)N/N=C/c1ncccc1N [3-AP]
- % sum abundance, de novo DNA-C, mass increase in nucleobase +0, in deoxyribose +3 (CEM cells [1]; [3]): 0.0554% and 0.0456% and 0.04%
- % sum abundance, de novo DNA-C, mass increase in nucleobase +0, in deoxyribose +4 (CEM cells [1]; [3]): 0.02% and 0.0358% and 0.0465%
- % sum abundance, de novo DNA-C, mass increase in nucleobase +0, in deoxyribose +5 (CEM cells [1]; [3]): 0.55% and 0.53% and 0.50%
- % sum abundance, de novo DNA-C, mass increase in nucleobase +1, in deoxyribose +3 (CEM cells [1]; [3]): 0.00%
- % sum abundance, de novo DNA-C, mass increase in nucleobase +1, in deoxyribose +4 (CEM cells [1]; [3]): 0.00%
- % sum abundance, de novo DNA-C, mass increase in nucleobase +1, in deoxyribose +5 (CEM cells [1]; [3]): 0.07% and 0.0542% and 0.0459%
- % sum abundance, de novo DNA-C, mass increase in nucleobase +2, in deoxyribose +4 (CEM cells [1]; [3]): 0.00%
- % sum abundance, de novo DNA-C, mass increase in nucleobase +2, in deoxyribose +5 (CEM cells [1]; [3]): 0.0465% and 0.04% and 0.032%
- % sum abundance, de novo DNA-C, mass increase in nucleobase +3, in deoxyribose +4 (CEM cells [1]; [3]): 0.00%
- % sum abundance, de novo DNA-C, mass increase in nucleobase +3, in deoxyribose +5 (CEM cells [1]; [3]): 0.00%
- % sum abundance, de novo DNA-C, mass increase in nucleobase +4, in deoxyribose +4 (CEM cells [1]; [3]): 0.00%
- % sum abundance, de novo DNA-C, mass increase in nucleobase +4, in deoxyribose +5 (CEM cells [1]; [3]): 0.00%
- % sum abundance, salvage DNA-C, mass increase in nucleobase +5, in deoxyribose +0 (CEM cells [1]; [3]): 0.00%
- % sum abundance, salvage DNA-C, mass increase in nucleobase +5, in deoxyribose +4 (CEM cells [1]; [3]): 0.00%
- % sum abundance, salvage DNA-C, mass increase in nucleobase +5, in deoxyribose +5 (CEM cells [1]; [3]): 0.00%
- % sum abundance, salvage DNA-C, mass increase in nucleobase +6, in deoxyribose +0 (CEM cells [1]; [3]): 0.00%
- % sum abundance, salvage DNA-C, mass increase in nucleobase +6, in deoxyribose +4 (CEM cells [1]; [3]): 0.00%
- % sum abundance, salvage DNA-C, mass increase in nucleobase +6, in deoxyribose +5 (CEM cells [1]; [3]): 0.39% and 0.40%
- % sum abundance, salvage DNA-C, mass increase in nucleobase +7, in deoxyribose +0 (CEM cells [1]; [3]): 0.00%
- % sum abundance, salvage DNA-C, mass increase in nucleobase +7, in deoxyribose +4 (CEM cells [1]; [3]): 0.23% and 0.25%
- % sum abundance, salvage DNA-C, mass increase in nucleobase +7, in deoxyribose +5 (CEM cells [1]; [3]): 4.69% and 4.96% and 4.68%
- % sum abundance, unlabeled DNA-C, mass increase in nucleobase +0, in deoxyribose +0 (CEM cells [1]; [3]): 83.63% and 83.39% and 83.92%
- % sum abundance, unlabeled DNA-C, mass increase in nucleobase +0, in deoxyribose +1 (CEM cells [1]; [3]): 4.68% and 4.72% and 4.61%
- % sum abundance, unlabeled DNA-C, mass increase in nucleobase +0, in deoxyribose +2 (CEM cells [1]; [3]): 0.67% and 0.60% and 0.58%
- % sum abundance, unlabeled DNA-C, mass increase in nucleobase +1, in deoxyribose +0 (CEM cells [1]; [3]): 4.40% and 4.42% and 4.39%
- % sum abundance, unlabeled DNA-C, mass increase in nucleobase +1, in deoxyribose +1 (CEM cells [1]; [3]): 0.26%
- % sum abundance, unlabeled DNA-C, mass increase in nucleobase +1, in deoxyribose +2 (CEM cells [1]; [3]): 0.00%
- % sum abundance, unlabeled DNA-C, mass increase in nucleobase +2, in deoxyribose +0 (CEM cells [1]; [3]): 0.31% and 0.29% and 0.26%
- % sum abundance, unlabeled DNA-C, mass increase in nucleobase +2, in deoxyribose +1 (CEM cells [1]; [3]): 0.00%
- % sum abundance, unlabeled DNA-C, mass increase in nucleobase +2, in deoxyribose +2 (CEM cells [1]; [3]): 0.00%
- % sum abundance, unlabeled DNA-C, mass increase in nucleobase +3, in deoxyribose +0 (CEM cells [1]; [3]): 0.00%
- % sum abundance, unlabeled DNA-C, mass increase in nucleobase +3, in deoxyribose +1 (CEM cells [1]; [3]): 0.00%
- % sum abundance, unlabeled DNA-C, mass increase in nucleobase +4, in deoxyribose +0 (CEM cells [1]; [3]): 0.00%
- increase of incorporation of salvage-produced dCTP into DNA (CEM cells [1]; CEM, 500 nM 3-AP, 12 h): > 1.5 fold
- rCTP and rCDP pools (CEM cells [1]; CEM, 500 nM 3-AP, 12 h): doubled
- reduction in the incorporation of de novo produced dCTP into DNA (CEM cells [1]; CEM, 500 nM 3-AP, 12 h): ~ 19 fold
- salvage dC nucleotide pools (CEM cells [1]; CEM, 500 nM 3-AP, 12 h): doubled
- increase of salvage contributions to the dCMP, dCDP and dCTP pools (CEM cells [1]; asynchronous CEM, 12 h): approximately twofold
- concentration inducing S-phase arrest (CEM cells [2]): 0.5 µM

From article PMC5556071, “ATR inhibition facilitates targeting of leukemia dependence on convergent nucleotide biosynthetic pathways” (Nature Communications, 2017)
